Read-outs that look alike come from different tables or passages of the source.
What was measured:
HDAC7 = target: T1, HDAC7 (Homo sapiens, UniProt Q8WUI4); assay: HDAC biochemical activity measurement (fluorescent substrate deacetylation);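 further: fluorogenic deacetylation assay using acetyl-lysine substrate at 20 µM, enzyme and compound incubated 30 min at 37 °C, then developer added, fluorescence read at 360/460 nm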; details: HDAC7; 37° C. 30 minutes
T1 sequence (Q8WUI4 1-952): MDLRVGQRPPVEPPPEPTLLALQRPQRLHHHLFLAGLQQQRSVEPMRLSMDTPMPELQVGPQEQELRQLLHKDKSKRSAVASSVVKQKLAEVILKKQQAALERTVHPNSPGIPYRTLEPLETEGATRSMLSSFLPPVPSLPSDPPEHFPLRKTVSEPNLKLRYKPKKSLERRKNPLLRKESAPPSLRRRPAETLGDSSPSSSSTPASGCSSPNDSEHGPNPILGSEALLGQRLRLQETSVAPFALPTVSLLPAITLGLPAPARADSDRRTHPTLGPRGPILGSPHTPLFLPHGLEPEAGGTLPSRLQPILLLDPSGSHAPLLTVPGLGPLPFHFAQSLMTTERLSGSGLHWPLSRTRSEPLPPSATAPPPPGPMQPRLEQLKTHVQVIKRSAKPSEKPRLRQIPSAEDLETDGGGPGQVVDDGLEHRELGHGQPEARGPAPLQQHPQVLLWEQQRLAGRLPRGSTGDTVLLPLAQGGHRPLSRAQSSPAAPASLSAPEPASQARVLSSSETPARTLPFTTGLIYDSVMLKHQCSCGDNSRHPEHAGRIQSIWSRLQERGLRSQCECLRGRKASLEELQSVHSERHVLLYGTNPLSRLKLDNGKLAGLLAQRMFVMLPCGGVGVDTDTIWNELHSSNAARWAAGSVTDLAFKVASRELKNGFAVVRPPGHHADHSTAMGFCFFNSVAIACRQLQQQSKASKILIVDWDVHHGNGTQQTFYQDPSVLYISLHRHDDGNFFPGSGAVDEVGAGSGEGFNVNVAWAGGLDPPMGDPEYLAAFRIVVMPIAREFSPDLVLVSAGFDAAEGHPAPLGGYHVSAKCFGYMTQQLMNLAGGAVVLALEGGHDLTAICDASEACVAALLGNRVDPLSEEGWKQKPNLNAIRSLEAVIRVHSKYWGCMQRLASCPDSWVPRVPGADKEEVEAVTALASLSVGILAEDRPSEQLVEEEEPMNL

[1] = test system: HT1080 (human fibrosarcoma cells); assay: MTT cancer cell growth inhibition; format: cell-based; details: Homo sapiens, HT-1080, 72 h, MTT, 72 hours incubation, read-out: GI50 HT1
Description: (§1) MTT assay principle is yellow MTT can penetrate membrane into the cell, succinic dehydrogenase of the mitochondria in living cells can make exogenous MTT reduction of insoluble in water of blue-violet acicular formazan for crystallization and deposition in the cell, crystallization can be dissolved dimethyl sulfoxide (DMSO) solution, detected its absorbance at 490 nm/570 nm wavelength by enzyme-linked immunosorbent assay, which can reflect the number of cells.
(§2) Using DMEM+10% FBS culture medium or using 1640+10% FBS culture, respectively.
(§3) a) Cells were seeded in 96-well plates with the inoculation of 1500/well, 190 μl/hole, 37° C., 5% of CO2 incubator overnight;
(§4) b) The next day each well was added 10 μl of different drugs. The final concentration of drug was 10^−5˜10^−10M, three parallel holes; 37° C., 5% CO2 culture incubator for 72 hours incubation;
(§5) c) Per well was added 20 μl 5 mg/ml of MTT, 37° C., 5% CO2 culture incubator for 4 hours incubation;
(§6) d) The supernatant was discarded. Each well was added 100 μl of DMSO and oscillation;
(§7) e) 570 nm readings. Calculate cell viability. GI50 calculation based on the results.

[2] = test system: U937 (human leukemia cells); assay: MTT cancer cell growth inhibition; format: cell-based; details: Homo sapiens, U-937, 72 h, MTT, 72 hours incubation, read-out: GI50 U93
Description: as §1, §2, §3, §4, §5, §6, §7

[3] = test system: Huh-7 (human hepatoma cells); assay: MTT cancer cell growth inhibition; format: cell-based; details: Homo sapiens, Huh-7, 72 h, MTT, 72 hours incubation, Huh-7 cells; read-out: GI50 Huh-7
Description: as §1, §2, §3, §4, §5, §6, §7

[4] = test system: DU145 (human prostate cancer cells); assay: MTT cancer cell growth inhibition; format: cell-based; details: Homo sapiens, DU-145, 72 h, MTT, 72 hours incubation, read-out: GI50 Du1
Description: as §1, §2, §3, §4, §5, §6, §7

[5] = test system: lncap (prostate cancer cells); assay: MTT cancer cell growth inhibition; format: cell-based; details: Homo sapiens, LNCaP, 72 h, MTT, 72 hours incubation, read-out: GI50 lnca
Description: as §1, §2, §3, §4, §5, §6, §7

[6] = test system: BGC-823 (human gastric cancer cells); assay: MTT cancer cell growth inhibition; format: cell-based; details: Homo sapiens, BGC-823, 72 h, MTT, 72 hours incubation, read-out: GI50 BG
Description: as §1, §2, §3, §4, §5, §6, §7

[7] = test system: PANC-1 (Pac-1, human pancreatic cancer cells); assay: MTT cancer cell growth inhibition; format: cell-based; details: Homo sapiens, PANC-1, 72 h, MTT, 72 hours incubation, read-out: GI50 PAN
Description: as §1, §2, §3, §4, §5, §6, §7

[8] = test system: MOLT-4 (human acute lymphoblastic leukemia cells); assay: MTT cancer cell growth inhibition; format: cell-based; details: Homo sapiens, MOLT-4, 72 h, MTT, 72 hours incubation, read-out: GI50 Mol
Description: as §1, §2, §3, §4, §5, §6, §7

[9] = test system: N-87 (human gastric cancer cells); assay: MTT cancer cell growth inhibition; format: cell-based; details: Homo sapiens, 72 h, MTT, 72 hours incubation, N-87 cells; read-out: GI50 N-87
Description: as §1, §2, §3, §4, §5, §6, §7

[10] = test system: Hela (human cervical cancer cells); assay: MTT cancer cell growth inhibition; format: cell-based; details: Homo sapiens, HeLa, 72 h, MTT, 72 hours incubation, read-out: GI50 Hela
Description: as §1, §2, §3, §4, §5, §6, §7

[11] = test system: A549 (human lung cancer cells); assay: MTT cancer cell growth inhibition; format: cell-based; details: Homo sapiens, A549, 72 h, MTT, 72 hours incubation, read-out: GI50 A54
Description: as §1, §2, §3, §4, §5, §6, §7

[12] = test system: MCF-7 (human breast cancer cells); assay: MTT cancer cell growth inhibition; format: cell-based; details: Homo sapiens, MCF7, 72 h, 72 hours incubation, read-out: GI50 MCF
Description: as §1, §2, §3, §4, §5, §6, §7

[13] = test system: MDA-MB-231 (breast cancer cells); assay: MTT cancer cell growth inhibition; format: cell-based; details: Homo sapiens, MDA-MB-231, 72 h, read-out: GI50 MDA-MB-231, MTT, 72 hours incubation, MDA-MB-231 cells
Description: as §1, §2, §3, §4, §5, §6, §7

[14] = test system: SGC-7901 (human gastric cancer cells); assay: MTT cancer cell growth inhibition; format: cell-based; details: Homo sapiens, SGC-7901, 72 h, MTT, 72 hours incubation, SGC-7901 cells; read-out: GI50 SGC-7901
Description: as §1, §2, §3, §4, §5, §6, §7

[15] = test system: H1975 (non-small cell lung adenocarcinoma); assay: MTT cancer cell growth inhibition; format: cell-based; details: Homo sapiens, NCI-H1975, 72 h, MTT, 72 hours incubation, H1975 cells; read-out: GI50 H1975
Description: as §1, §2, §3, §4, §5, §6, §7

[16] = test system: KBM5-T315I (human chronic myelogenous leukemia); assay: MTT cancer cell growth inhibition; format: cell-based; details: Homo sapiens, 72 h, MTT, 72 hours incubation, KBM5-T315I cells; read-out: GI50 KBM5-T315I
Description: as §1, §2, §3, §4, §5, §6, §7

[17] = test system: Bel-7402 (human hepatoma cells); assay: MTT cancer cell growth inhibition; format: cell-based; details: Homo sapiens, Bel-7402, 72 h, MTT, 72 hours incubation, Bel-7402 cells; read-out: GI50 Bel-7402
Description: as §1, §2, §3, §4, §5, §6, §7

[18] = test system: K562 (human leukemia cells); assay: MTT cancer cell growth inhibition; format: cell-based; details: Homo sapiens, K562, 72 h, MTT, 72 hours incubation, K562 cells; read-out: GI50 K562
Description: as §1, §2, §3, §4, §5, §6, §7

[19] = test system: HCC827 (human non-small cell lung cancer cells); assay: MTT cancer cell growth inhibition; format: cell-based; details: Homo sapiens, HCC827, 72 h, MTT, 72 hours incubation, HCC827 cells; read-out: GI50 HCC827
Description: as §1, §2, §3, §4, §5, §6, §7

[20] = test system: KBM-5 (human chronic myelogenous leukemia); assay: MTT cancer cell growth inhibition; format: cell-based; details: Homo sapiens, KBM5, 72 h, MTT, 72 hours incubation, KBM-5 cells; read-out: GI50 KBM-5
Description: as §1, §2, §3, §4, §5, §6, §7

Row | SMILES | IC50 HDAC7 (HDAC7) | GI50 [3] [nM] | GI50 [9] [nM] | GI50 [13] [nM] | GI50 [14] [nM] | GI50 [15] [nM] | GI50 [16] [nM] | GI50 [17] [nM] | GI50 [18] [nM] | GI50 [19] [nM] | GI50 [20] [nM] | GI50 ([1]; HT1080 cells) [nM] | GI50 ([2]; U937 cells) [nM] | GI50 ([4]; DU145 cells) [nM] | GI50 ([5]; lncap cells) [nM] | GI50 ([6]; BGC-823 cells) [nM] | GI50 ([7]; PANC-1 cells) [nM] | GI50 ([8]; MOLT-4 cells) [nM] | GI50 ([10]; Hela cells) [nM] | GI50 ([11]; A549 cells) [nM] | other results
1 | C/C=C1\NC(=O)c2ccc(F)c(n2)CNC(=O)C[C@@H](/C=C/CCSC(=O)CCCCCCC)OC(=O)[C@H](C(C)C)NC1=O [Example 32] | no activity | 38 | 69 | 38 | 45 | 53 | 58 | 67 | 34 | 67 | 71 |  |  |  |  |  |  |  |  |  | GI50 [1]: 60 nM; GI50 [2]: 50 nM; GI50 [4]: 30 nM; GI50 [5]: 30 nM; GI50 [6]: 60 nM; GI50 [7]: 60 nM; GI50 [8]: 30 nM; GI50 [10]: 70 nM; GI50 [11]: 40 nM; GI50 [12]: 50 nM
2 | C/C=C1\NC(=O)c2cc(SC)cc(n2)CNC(=O)C[C@@H](/C=C/CCSC(=O)CC)OC(=O)[C@H](C(C)C)NC1=O [Compound 163] | no activity | 107 | 39 | 58 | 49 | 45 | 23 | 26 | 58 | 47 | 75 | 10 | 30 | 40 | 30 | 60 | 70 | 40 | 10 | 50 | GI50 ([12]; MCF-7 cells): 20 nM
3 | C/C=C1\NC(=O)c2cc(SC)cc(n2)CNC(=O)C[C@@H](/C=C/CCSC(C)=O)OC(=O)[C@H](Cc2ccccc2)NC1=O [Compound 187] | no activity | 85 | 42 | 11 | 38 | 23 | 41 | 43 | 45 | 75 | 21 | 20 | 60 | 50 | 60 | 60 | 60 | 30 | 40 | 60 | GI50 ([12]; MCF-7 cells): 20 nM

Continued, in another order:

Row | IC50 HDAC7 (HDAC7) | GI50 [3] [nM] | GI50 [9] [nM] | GI50 [13] [nM] | GI50 [14] [nM] | GI50 [15] [nM] | GI50 [16] [nM] | GI50 [17] [nM] | GI50 [18] [nM] | GI50 [19] [nM] | GI50 [20] [nM] | GI50 ([1]; HT1080 cells) [nM] | GI50 ([2]; U937 cells) [nM] | GI50 ([4]; DU145 cells) [nM] | GI50 ([5]; lncap cells) [nM] | GI50 ([6]; BGC-823 cells) [nM] | GI50 ([7]; PANC-1 cells) [nM] | GI50 ([8]; MOLT-4 cells) [nM] | GI50 ([10]; Hela cells) [nM] | GI50 ([11]; A549 cells) [nM] | SMILES | other results
4 | no activity | 81 | 18 | 79 | 78 | 49 | 16 | 35 | 73 | 51 | 42 | 70 | 50 | 10 | 50 | 50 | 70 | 70 | 80 | 90 | C/C=C1\NC(=O)c2nc(ccc2SC)CNC(=O)C[C@@H](/C=C/CCSC(=O)CC)OC(=O)[C@H](C(C)C)NC1=O [Compound 162] | GI50 ([12]; MCF-7 cells): 40 nM
5 | no activity | 56 | 73 | 17 | 42 | 26 | 53 | 68 | 46 | 31 | 50 | 80 | 30 | 60 | 70 | 70 | 20 | 30 | 50 | 10 | C/C=C1\NC(=O)c2cc(SC)cc(n2)CNC(=O)C[C@@H](/C=C/CCSC(C)=O)OC(=O)[C@H](C(C)C)NC1=O [Compound 166] | GI50 ([12]; MCF-7 cells): 60 nM
6 | no activity | 22 | 27 | 72 | 105 | 25 | 49 | 47 | 86 | 56 | 52 | 20 | 20 | 30 | 50 | 10 | 50 | 50 | 30 | 50 | C=C1NC(=O)c2nc(ccc2SC)CNC(=O)C[C@@H](/C=C/CCSC(C)=O)OC(=O)[C@H](C)NC1=O [Compound 210] | GI50 ([12]; MCF-7 cells): 30 nM

From US10065990B2, “Cyclic peptide compound, and preparation method, pharmaceutical composition and use thereof” (HANGZHOU GUANYU BIO-MEDICAL CO., LTD, priority 2013, dated 2018)
